Assay results from US20050203067A1, “Pesticidal compositions and methods” (priority 2003, published 2005).
In brackets after ≈: the same amount, converted by molar mass. Several values for one entry are separate records, joined by “and”; a condition that tells them apart may be missing. Equal entries are not always repeated. Where two headings read alike, the source gives them in different places.

Columns and labels:
[1] = tested on: cucumber seedling; assay: Miniaturized greenhouse assay, phytotoxicity rating; conditions: 200 ppm
[2] = tested on: Beet army worm
[3] = tested on: Sclerotinia sclerotiorum; assay: microbe, parasite or virus in culture; type: cell-based; conditions: read-out: growth inhibition
[4] = tested on: C. elegans; assay: C. elegans agar (plate) assay; type: in vivo; conditions: Caenorhabditis elegans, read-out: Plate EC50
[5] = tested on: Alternaria solani; assay: microbe, parasite or virus in culture; type: cell-based; conditions: read-out: growth inhibition
[6] = tested on: tomato plants; conditions: in vivo
[7] = tested on: root knot nematode (Meloidogyne incognita); conditions: in vivo
[8] = tested on: C. elegans (strain N2); assay: C. elegans contact assay (NGM-agar, 24-well); type: in vivo; conditions: Caenorhabditis elegans, 96 h
[9] = tested on: Fusarium graminearum; assay: microbe, parasite or virus in culture; type: cell-based; conditions: read-out: growth inhibition
[10] = tested on: Corn ear worm
[11] = tested on: C. elegans; assay: C. elegans liquid (well) assay; type: in vivo; conditions: Caenorhabditis elegans, read-out: Well EC50
[12] = tested on: Meloidogyne incognita J2 larvae; assay: Miniaturized greenhouse assay on cucumber seedlings, root gall rating; type: in vivo
[13] = tested on: various fungal species
[14] = tested on: several arthropods; conditions: in vivo
[15] = tested on: Botrytis cinerea; assay: microbe, parasite or virus in culture; type: cell-based; conditions: read-out: growth inhibition

O=S(=O)(F)CCNc1ccc(N=Nc2ccccc2)cc1 [Compound 3746, 2-(4-phenylazo-phenylamino)-ethanesulfonyl fluoride]
Ptox 200 (phytotoxicity rating) [1]: 3.00 and 2.67
Result (arthropod toxicity) ([2]; 2500 μM): No effect
Result (arthropod toxicity) ([2]; 25000 μM): Lethal
inhibition at 16.3 µM ([3]; 16.3 μM): < 25%
inhibition at 163 µM ([3]; 163 μM): > 75%
EC50 [4]: 1.6 µg/mL (≈ 5.21 µM)
inhibition at 1.63 µM ([5]; 1.63 μM): < 25%
inhibition at 16.3 µM ([5]; 16.3 μM): > 75%
phytotoxicity (root weights) [6]: no phytoxicity
nematode control (gall ratings) [7]: nematode control approaching that of the commercial nematicides fenamiphos (Nemacur)
EC50 [8]: 2 µM
inhibition at 1.63 µM ([9]; 1.63 μM): < 25%
inhibition at 16.3 µM ([9]; 16.3 μM): > 75%
Result (arthropod toxicity) ([10]; 2500 μM): Non-effect
Result (arthropod toxicity) ([10]; 25000 μM): Lethal
EC50 [11]: 6.3 to 12.5 µg/mL (≈ 20.5 to 40.7 µM)
Gall 40 (gall rating) ([12]; 40 ppm): 1.33 and 2.00
Gall 200 (gall rating) ([12]; 200 ppm): 0.00
toxicity to fungal species [13]: Low to moderate toxicity
toxicity to arthropods [14]: not toxic
inhibition at 1.63 µM ([15]; 1.63 μM): < 25%
inhibition at 16.3 µM ([15]; 16.3 μM): > 75%
